pIC50: −log10 of the molar value.
These compounds were tested against Human TRPA1 (Homo sapiens, UniProt O75762) (assay: Alternative TRPA1 Ca2+ fluorometry assay (hTRPA1/TREx-HEK293 cells, Fluo-4, FDSS 6000)). Settings: Fluo-4-AM, agonist 6,11-dihydro-5H-dibenzo[b,e]azepine-10-carboxylic acid methyl ester 25 nM, procedure used for Examples 184, 190 to 192, 194 to 316.
Assay type: cell-based
Set-up: expressed in transfected cells
Outline: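 Tetracycline-induced (50 ng/ml, 24 h) hTRPA1/TREx-HEK293 cells were loaded with Fluo-4-AM and probenecid. Compound (1% DMSO final) was added after a 12 s baseline and the Ca2+ signal followed for 14 min, then 25 nM TRPA1 agonist dibenzazepine carboxylic acid methyl ester was applied. Signal is Em540 (ex 488 nm) relative to the first baseline reading.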

Human TRPA1, sequence (O75762 whole entry): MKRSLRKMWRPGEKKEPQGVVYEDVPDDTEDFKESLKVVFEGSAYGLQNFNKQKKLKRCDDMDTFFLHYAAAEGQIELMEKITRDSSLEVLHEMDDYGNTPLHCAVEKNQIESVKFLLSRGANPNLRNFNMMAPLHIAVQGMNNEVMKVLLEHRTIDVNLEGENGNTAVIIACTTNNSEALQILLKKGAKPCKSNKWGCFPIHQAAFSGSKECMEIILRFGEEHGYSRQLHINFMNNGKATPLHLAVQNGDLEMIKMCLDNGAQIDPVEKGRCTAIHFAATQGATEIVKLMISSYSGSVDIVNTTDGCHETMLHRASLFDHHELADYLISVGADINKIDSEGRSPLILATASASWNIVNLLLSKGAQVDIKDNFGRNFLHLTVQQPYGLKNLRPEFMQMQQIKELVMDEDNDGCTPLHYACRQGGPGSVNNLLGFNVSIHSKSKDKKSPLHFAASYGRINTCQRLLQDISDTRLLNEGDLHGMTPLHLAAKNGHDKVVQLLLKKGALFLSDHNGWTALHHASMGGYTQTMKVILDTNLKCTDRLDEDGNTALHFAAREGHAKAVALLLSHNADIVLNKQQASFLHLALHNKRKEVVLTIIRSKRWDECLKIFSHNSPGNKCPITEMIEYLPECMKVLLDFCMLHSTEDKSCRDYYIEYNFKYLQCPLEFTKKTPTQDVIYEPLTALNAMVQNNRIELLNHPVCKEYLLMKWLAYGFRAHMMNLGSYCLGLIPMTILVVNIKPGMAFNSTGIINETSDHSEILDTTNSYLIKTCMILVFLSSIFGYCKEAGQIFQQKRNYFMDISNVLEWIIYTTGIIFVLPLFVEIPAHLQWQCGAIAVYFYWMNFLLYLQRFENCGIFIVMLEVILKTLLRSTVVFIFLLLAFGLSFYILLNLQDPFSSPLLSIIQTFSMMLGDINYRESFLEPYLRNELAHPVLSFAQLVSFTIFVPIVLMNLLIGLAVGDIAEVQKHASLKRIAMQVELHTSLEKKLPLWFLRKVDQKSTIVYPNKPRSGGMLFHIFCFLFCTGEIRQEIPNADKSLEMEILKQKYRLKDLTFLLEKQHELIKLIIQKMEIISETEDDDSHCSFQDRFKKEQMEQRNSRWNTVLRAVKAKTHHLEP

Row | pIC50 | Structure (SMILES)
1 | 5.93 | CC(=O)c1ccc(N2CCN(c3nc(CNC(=O)[C@@H]4CCCN4S(=O)(=O)c4ccc(F)cc4)cc(-c4ccc(C(F)(F)F)cc4)n3)CC2)cc1 [Example 309, 1-(4-Fluoro-benzenesulfonyl)-pyrrolidine-2S-carboxylic acid [2-[4-(4-acetyl-phenyl)-piperazin-1-yl]-6-(4-trifluoromethyl-phenyl)-pyrimidin-4-ylmethyl]-amide]
2 | 6.39 | CCCCNc1nc(CNC(=O)[C@@H]2CCCN2S(=O)(=O)c2ccc(F)cc2)cc(-c2ccc(C(F)(F)F)cc2)n1 [Example 310, 1-(4-Fluoro-benzenesulfonyl)-pyrrolidine-2S-carboxylic acid [2-butylamino-6-(4-trifluoromethyl-phenyl)-pyrimidin-4-ylmethyl]-amide]
3 | ~5.82 | CC(Nc1nc(CNC(=O)[C@@H]2CCCN2S(=O)(=O)c2ccc(F)cc2)cc(-c2ccc3c(c2)OCO3)n1)c1ccccc1 (stereo partly drawn) [Example 311, 1-(4-Fluoro-benzenesulfonyl)-pyrrolidine-2S-carboxylic acid [6-benzo[1,3]dioxol-5-yl-2-(1-phenyl-ethylamino)-pyrimidin-4-ylmethyl]-amide]
4 | 6.53 | O=C(NCc1cc(-c2ccc(C(F)(F)F)cc2)nc(NCCc2cccnc2)n1)[C@@H]1CCCN1S(=O)(=O)c1ccc(F)cc1 [Example 312, 1-(4-Fluoro-benzenesulfonyl)-pyrrolidine-2S-carboxylic acid [2-(2-pyridin-3-yl-ethylamino)-6-(4-trifluoromethyl-phenyl)-pyrimidin-4-ylmethyl]-amide]
5 | ~6.31 | CC(Nc1nc(CNC(=O)[C@@H]2CCCN2S(=O)(=O)c2ccc(F)cc2)cc(-c2ccc(C(F)(F)F)cc2)n1)c1ccccc1 (stereo partly drawn) [Example 313, 1-(4-Fluoro-benzenesulfonyl)-pyrrolidine-2S-carboxylic acid [2-(1-phenyl-ethylamino)-6-(4-trifluoromethyl-phenyl)-pyrimidin-4-ylmethyl]-amide]
6 | ~5.88 | CN1CCN(c2nc(CNC(=O)[C@@H]3CCCN3S(=O)(=O)c3ccc(F)cc3)cc(-c3ccc(C(F)(F)F)cc3)n2)CC1 [Example 314, 1-(4-Fluoro-benzenesulfonyl)-pyrrolidine-2-carboxylic acid [2-(4-methyl-piperazin-1-yl)-6-(4-trifluoromethyl-phenyl)-pyrimidin-4-ylmethyl]-amide]
7 | ~6.35 | O=C(NCc1cc(-c2ccc(C(F)(F)F)cc2)nc(NCCN2CCOCC2)n1)[C@@H]1CCCN1S(=O)(=O)c1ccc(F)cc1 [Example 315, 1-(4-Fluoro-benzenesulfonyl)-pyrrolidine-2S-carboxylic acid [2-(2-morpholin-4-yl-ethylamino)-6-(4-trifluoromethyl-phenyl)-pyrimidin-4-ylmethyl]-amide]
8 | 5.84 | O=C(NCc1cc(-c2ccc(Br)cc2)nc(NCCN2CCOCC2)n1)[C@@H]1CCCN1S(=O)(=O)c1ccc(F)cc1 [Example 316, 1-(4-Fluoro-benzenesulfonyl)-pyrrolidine-2S-carboxylic acid [6-(4-bromo-phenyl)-2-(2-morpholin-4-yl-ethylamino)-pyrimidin-4-ylmethyl]-amide]

From patent US8614201B2 (Janssen Pharmaceutica NV, priority 2009, dated 2013)
